The values below come from PMC6131205, “Controlling the regioselectivity and stereospecificity of FAD-dependent polyamine oxidases with the use of amine-attached guide molecules as conformational modulators” (Bioscience Reports, 2018).

In assay [1] the target is T1, human recombinant APAO (Homo sapiens, UniProt Q6QHF9).
T1 construct: made in house
In words: Substrate kinetics with human recombinant APAO (HPLC of reaction products). Type of assay: biochemical. The conditions noted are these: for specificity constant ratio (R)-enantiomer/(S)-enantiomer: APAO, ratio of kcat/Km; for Km / Vmax / kcat: 100 mM Glycine-NaOH pH 9.5, 5 mM DTT.

The target in assay [2] is T1, human recombinant APAO. The conditions noted are these: cited from earlier work.
Assay [3] addresses T2, Fms1 (Saccharomyces cerevisiae, UniProt P50264). The assay is described as follows: Substrate kinetics with recombinant Fms1 (HPLC of reaction products).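 As to all read-outs here: recombinant polyamine oxidases incubated with substrate, product amines (putrescine, 1,3-diaminopropane or butane-1,3-diamine) quantified by HPLC after post-column o-phthalaldehyde derivatization.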 Conditions: for Km: Fms1, text summary of Supplementary Table S2.
Experimental: HPLC with post-column o-phthalaldehyde-derivatization was used to determine the concentrations of the reaction products Put and 1,3-diaminopropane (DAP) or butane-1,3-diamine respectively as described in [30]. Fms1 activity was determined essentially as described for human recombinant APAO, but reactions were carried out in 100 mM Glycine-NaOH buffer at pH 9.0 in a water bath at +25°C [29, 30].
The reactions were carried out in 1 triplicate at pH 9.0 in 100 mM Glycine-NaOH at +25°C.
values for N -Ac-MeSpd enantiomers were determined by using substrate concentrations of 25, 50,
for Rac-MeSpd 30 min, (R)-MeSpd 20 min and (S)-MeSpd 40 minutes.
The reactions were carried out in triplicate at pH 9.0 in 100 mM Glycine-NaOH at +25°C.
values for MeSpd enantiomers were determined by using substrate concentrations of 100, 300, 600,
1000, 2000 and 4000 M. Recombinant Fms1 was 3.8 g/reaction and the incubation time 60
incubated for 30 min (half of the reaction time of an ordinary sample). E1 cleavage was monitored
Assay [4] concerns the target T3, SMOX (Homo sapiens, UniProt Q9NWM0). The assay is described as follows: Substrate properties with human recombinant SMOX. Type of assay: biochemical. More on the design: made in house. From the text: Thus, developing specific inhibitors of SMOX is of crucial importance. In addition, the use of specific substrates for SMOX and APAO would enable distinguishing between APAO and SMOX enzyme activities in vivo.

In assay [5] the target is T3, SMOX. The assay is described as follows: Inhibition of SMOX (Ki, peroxidase-coupled fluorescence, Spm as substrate).
Experimental: Reaction mixtures contained 40 units/ml horseradish peroxidase (Roche), 1 mM homovanillic acid in 100 mM Glycine-NaOH at pH 9.0 supplemented with 40 ng of SMOX. […] Dilutions of fresh H2O2 were used as standard.
In assay [6] the target is T2, Fms1. Details: made in house; method as in PMID 21067138. Conditions: cited from earlier work.
The target of assay [7] is T2, Fms1. The assay is described as follows: Fms1 cleavage of (R)- or (S)-MeSpd with or without aromatic aldehyde (E1/E2 velocities). Type of assay: biochemical, yeast. Details: made in house. On the procedure:
Supplementary Table 3 The effects of increasing aromatic aldehyde concentration for the regioselectivity of Fms1 using (R)-MeSpd or (S)-MeSpd as a substrate.
The reactions were carried out in triplicate at pH 9.0 in 100 mM Glycine-NaOH at +25°C with the fixed 1 or 4 mM MeSpd supplemented with increasing concentration 50 or 500 µM of tested aldehyde. Recombinant Fms1 was 1.6 µg/reaction and the incubation time from 15 to 30 minutes.
Linearity of reaction was monitored by using T1/2 controls, i.e. samples that have been incubated for 7.5 to 15 min (half of the reaction time of an ordinary sample). E1 cleavage was monitored by HPLC by measuring Put formation and E2 cleavage by determining butane-1,3-diamine content.
Substrate (R)-MeSpd (S)-MeSpd […]

Assay [8] addresses T2, Fms1. The assay is described as above. Type of assay: biochemical, yeast. Details: made in house. This is another data set of the same source.
The subject of assay [9] is amine oxidases in rat liver homogenates. In words: Degradation in rat liver supernatant. Type of assay: in vitro ADME. Conditions: 20 μM MDL 72527, 5 min preincubation. On the procedure:
A Wistar rat liver was frozen in liquid nitrogen. The liver was homogenized (1+3 w/v) with Teflon potter in buffer containing 25 mM Tris/HCl pH 7.4, 1 mM DTT and 0.1 mM EDTA. Resulting homogenate was centrifuged at 12000×g for 30 min at +4°C. Supernatant was divided into two portions and treated as follows: (A) incubated for 5 min at +37°C in a water bath, (B) supplemented with 20 μM MDL 72527 and incubated for 5 min at +37°C in a water bath to inactivate APAO and SMOX. A 20-μl aliquot of supernatant A or B was added in 100 mM Glycine-NaOH pH 9.5, 5 mM DTT with or without 100 μM of studied drug in a total volume of 180 μl. After 10-min incubation at +37°C, 20 μl of 50% sulphosalicylic acid (SSA) containing 100 μM diaminoheptane (DAH) was added to the reaction mixture. The samples were assayed with HPLC as described in [30].

In assay [10] the target is T3, SMOX. Details: made in house; method as in PMID 17901051, PMID 16354669. Conditions: cited from earlier work.
Setting [11] is: Supplementary Table 1, pH 9.0, 100 mM Glycine-NaOH, 25°C, Put formation.
Setting [12] is: Ki (best-fit value, noncompetitive inhibition), GraphPad Prism global fit, supplement.
Where [13] appears, read: Ki, non-competitive fit, 25, 50 or 100 µM Spm, pH 9.0, 37°C.
[14] abbreviates: 1 mM Spm, Glycine-NaOH buffer pH 9.0.
Where [15] appears, read: aldehyde A13 50 µM, first of two lines (1 or 4 mM MeSpd, not stated which).
Where [16] appears, read: aldehyde A12 50 µM, first of two lines (1 or 4 mM MeSpd, not stated which).
[17] abbreviates: aldehyde A12 50 µM, second of two lines (1 or 4 mM MeSpd, not stated which).
Where [18] appears, read: aldehyde A12 500 µM, first of two lines (1 or 4 mM MeSpd, not stated which).
The mark [19] stands for this setting: aldehyde A12 500 µM, second of two lines (1 or 4 mM MeSpd, not stated which).
[20] abbreviates: aldehyde A13 50 µM, second of two lines (1 or 4 mM MeSpd, not stated which).
The mark [21] stands for this setting: aldehyde A13 500 µM, first of two lines (1 or 4 mM MeSpd, not stated which).
[22] abbreviates: aldehyde A13 500 µM, second of two lines (1 or 4 mM MeSpd, not stated which).

Where two headings read alike, the source gives them in different places.

T1 sequence (Q6QHF9 whole entry): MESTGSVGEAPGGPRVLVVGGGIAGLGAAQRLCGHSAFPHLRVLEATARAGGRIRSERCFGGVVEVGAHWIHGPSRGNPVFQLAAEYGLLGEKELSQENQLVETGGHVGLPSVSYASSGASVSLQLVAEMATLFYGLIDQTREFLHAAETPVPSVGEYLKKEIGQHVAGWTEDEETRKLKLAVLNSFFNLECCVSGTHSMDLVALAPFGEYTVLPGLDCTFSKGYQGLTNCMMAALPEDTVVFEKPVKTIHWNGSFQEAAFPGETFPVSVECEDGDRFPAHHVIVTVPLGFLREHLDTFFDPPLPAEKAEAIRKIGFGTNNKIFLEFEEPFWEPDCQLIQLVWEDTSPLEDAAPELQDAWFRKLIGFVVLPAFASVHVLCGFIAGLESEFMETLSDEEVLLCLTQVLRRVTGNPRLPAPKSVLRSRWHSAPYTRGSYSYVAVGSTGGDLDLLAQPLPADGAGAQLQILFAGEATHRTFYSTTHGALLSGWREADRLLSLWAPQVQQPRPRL
T3 sequence (Q9NWM0 whole entry): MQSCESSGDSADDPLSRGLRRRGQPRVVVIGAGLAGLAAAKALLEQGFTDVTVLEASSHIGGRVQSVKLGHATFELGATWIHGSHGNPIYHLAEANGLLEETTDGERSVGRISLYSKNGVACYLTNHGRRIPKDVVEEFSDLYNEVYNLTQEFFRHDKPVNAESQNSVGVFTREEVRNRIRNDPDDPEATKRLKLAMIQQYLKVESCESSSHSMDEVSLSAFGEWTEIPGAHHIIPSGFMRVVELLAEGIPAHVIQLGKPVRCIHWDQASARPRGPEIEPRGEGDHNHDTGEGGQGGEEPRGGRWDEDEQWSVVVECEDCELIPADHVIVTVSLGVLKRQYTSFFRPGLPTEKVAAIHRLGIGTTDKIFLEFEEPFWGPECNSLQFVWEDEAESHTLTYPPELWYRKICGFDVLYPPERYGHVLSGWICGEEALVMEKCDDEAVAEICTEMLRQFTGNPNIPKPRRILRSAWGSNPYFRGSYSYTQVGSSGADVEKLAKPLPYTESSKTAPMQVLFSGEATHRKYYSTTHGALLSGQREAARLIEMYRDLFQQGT
T2 sequence (P50264 whole entry): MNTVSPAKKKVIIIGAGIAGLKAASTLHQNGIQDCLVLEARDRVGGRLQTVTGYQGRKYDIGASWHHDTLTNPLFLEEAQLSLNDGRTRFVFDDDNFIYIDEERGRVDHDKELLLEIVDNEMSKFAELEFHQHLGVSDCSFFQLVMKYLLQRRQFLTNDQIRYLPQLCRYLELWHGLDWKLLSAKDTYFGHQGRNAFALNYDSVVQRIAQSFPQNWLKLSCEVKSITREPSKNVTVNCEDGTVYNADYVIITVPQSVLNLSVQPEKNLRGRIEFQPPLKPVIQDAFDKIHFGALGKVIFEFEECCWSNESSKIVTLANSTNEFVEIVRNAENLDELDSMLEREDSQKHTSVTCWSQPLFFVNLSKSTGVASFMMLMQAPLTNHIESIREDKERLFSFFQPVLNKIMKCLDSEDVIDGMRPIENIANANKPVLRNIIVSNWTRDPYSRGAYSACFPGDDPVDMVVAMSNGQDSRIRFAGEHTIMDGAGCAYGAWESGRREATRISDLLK

In the case of `CC(=O)N[C@H](C)CCNCCCCN` [N^1-Ac-(R)-MeSpd], in assay [1], the “specificity constant ratio (R)-enantiomer/(S)-enantiomer” value was 13. Besides, in assay [2], the Km is 95 µM and the kcat was 9 s⁻¹. In addition, in assay [3] (setting [11]), the Vmax turned out to be 61 ± 4 nmol/min/mg and the kcat is 0.06 ± 0.00 s⁻¹.
As for `C[C@@H](CCNCCCCN)NCc1ccccc1` [Bn-(S)-MeSpd], in [1], the Km was found to be 1.6 ± 0.6 µM, the Vmax worked out at 0.03 ± 0.00 µmol/min/mg and the kcat amounted to 0.03 ± 0.00 s⁻¹. Further, the “substrate of SMOX” value in assay [4] is “not being substrates of SMOX”. Moreover, affinity in assay [5] (setting [12]) was put at a Ki of 155 µM. The Ki in assay [5] (setting [13]) stood at 155 ± 13 µM.
Consider `NCCCNCCCCNCCCN` [Spm, spermine, reference compound], for which the kcat was 39.0 ± 1.5 s⁻¹ in assay [6] and 30.3 ± 0.44 s⁻¹ in assay [3] (setting [14]). Further, the reaction velocity in assay [3] (1 mM Spm, 100 mM Tris/HCl or 170 mM Bis/Tris buffers pH 9.0) turned out to be 36.1 ± 0.24 µmol/mg/min. Further, the “pH of highest reaction velocity” value in [3] (1 mM Spm, 170 mM Bis/Tris) is given as 9.25. Besides, the “reaction velocity in comparison with rate at the optimum pH” value was ~ 15% in assay [3] (1 mM Spm, 170 mM Bis/Tris, pH 8.0) and 60% in assay [3] (1 mM Spm, 170 mM Bis/Tris, pH 8.5). Also, in assay [3] (setting [14]), the “activity of recombinant Fms1” value came to 30.9 ± 0.45 µmol/mg/min.
As for `C[C@H](CCNCCCCN)NCc1ccccc1` [Bn-(R)-MeSpd], in [1], the Km worked out at 2 ± 0.1 µM, the Vmax is 0.15 ± 0.00 µmol/min/mg, the kcat was 0.14 ± 0.00 s⁻¹ and the “specificity constant ratio (R)-enantiomer/(S)-enantiomer” value was “four”. Moreover, the “substrate of SMOX” value in assay [4] is “not being substrates of SMOX”. In assay [5] (setting [12]), this molecule returned a Ki of 441 µM. Besides, the Ki in [5] (setting [13]) is 441 ± 32 µM.
For the molecule `CC(=O)N[C@@H](C)CCNCCCCN` [N^1-Ac-(S)-MeSpd], in assay [2], the Michaelis constant (Km) was 170 µM and the kcat was 1.2 s⁻¹. In addition, in assay [3] (setting [11]), the Vmax came to 22 ± 1 nmol/min/mg and the kcat was determined as 0.02 ± 0.00 s⁻¹.
As to `C[C@@H](N)CCNCCCCN` [(R)-MeSpd, 1,8-diamino-5-azanonane], the “specificity constant ratio (R)/(S) of benzaldehyde Schiff base derivatives” value in assay [2] (benzaldehyde Schiff base of MeSpd) is reported as “eight”. The E2 cleavage velocity is given as 4.3 ± 0.9 nmol/mg/min in assay [7] (Without aldehyde, 1 mM MeSpd); 5.6 ± 0.4 nmol/mg/min in [7] (Without aldehyde, 4 mM MeSpd); 33.7 ± 4.8 nmol/mg/min in assay [8] (setting [16]); 31.8 ± 4.3 nmol/mg/min in assay [8] (setting [17]); 186 ± 24 nmol/mg/min in assay [8] (setting [18]); 216 ± 31 nmol/mg/min in [8] (setting [19]). In addition, the E2 cleavage velocity in [8] (setting [15]) is recorded as 10.3 ± 3.1 nmol/mg/min; in [8] (setting [20]), 9.6 ± 2.2 nmol/mg/min; in [8] (setting [21]), 41.5 ± 3.4 nmol/mg/min; in [8] (setting [22]), 39.5 ± 2.1 nmol/mg/min. For the same molecule, the E1 cleavage velocity is recorded as 12.5 ± 0.0 nmol/mg/min in assay [7] (Without aldehyde, 4 mM MeSpd); 19.1 ± 1.0 nmol/mg/min in [7] (setting [15]); 9.5 ± 0.1 nmol/mg/min in [8] (Without aldehyde, 1 mM MeSpd); 10.5 ± 1.1 nmol/mg/min in assay [8] (setting [16]); 14.0 ± 0.9 nmol/mg/min in assay [8] (setting [17]); 12.7 ± 1.6 nmol/mg/min in assay [8] (setting [18]). Besides, the E1 cleavage velocity amounted to 14.4 ± 0.8 nmol/mg/min in assay [8] (setting [19]), 19.1 ± 0.4 nmol/mg/min in assay [8] (setting [20]), 72.8 ± 2.3 nmol/mg/min in [8] (setting [21]) and 63.1 ± 1.0 nmol/mg/min in assay [8] (setting [22]). Further, the Km in [3] was over 500 µM.
On to `C[C@H](N)CCNCCCCN` [(S)-MeSpd, 1,8-diamino-5-azanonane], for which the E2 cleavage velocity in assay [7] (Without aldehyde, 1 mM MeSpd) worked out at 7.9 ± 1.1 nmol/mg/min; in assay [7] (Without aldehyde, 4 mM MeSpd), 11.1 ± 1.8 nmol/mg/min; in assay [8] (setting [16]), 20.2 ± 1.0 nmol/mg/min; in assay [8] (setting [17]), 23.3 ± 2.0 nmol/mg/min; in [8] (setting [18]), 36 ± 4.2 nmol/mg/min; in [8] (setting [19]), 41 ± 2.5 nmol/mg/min. Also, the E2 cleavage velocity in assay [8] (setting [15]) stood at 8.6 ± 1.8 nmol/mg/min; in [8] (setting [20]), 10.0 ± 0.6 nmol/mg/min; in [8] (setting [21]), 6.9 ± 0.7 nmol/mg/min; in [8] (setting [22]), 7.4 ± 1.3 nmol/mg/min. The E1 cleavage velocity in [7] (Without aldehyde, 4 mM MeSpd) is 9.6 ± 0.1 nmol/mg/min; in [7] (setting [15]) it was 45.6 ± 2.6 nmol/mg/min; in assay [8] (Without aldehyde, 1 mM MeSpd) it was 7.2 ± 0.2 nmol/mg/min; in assay [8] (setting [16]), 29 ± 1.0 nmol/mg/min; in [8] (setting [17]), 31 ± 1.8 nmol/mg/min; in [8] (setting [18]), 57 ± 1.1 nmol/mg/min. Further, the E1 cleavage velocity in assay [8] (setting [19]) is given as 62 ± 3 nmol/mg/min; in assay [8] (setting [20]) it was 44.0 ± 1.2 nmol/mg/min; in assay [8] (setting [21]), 66.1 ± 0.0 nmol/mg/min; in assay [8] (setting [22]), 73.5 ± 0.4 nmol/mg/min. In assay [3], the Km was over 500 µM.
With `CC(=O)NCCCNCCCCNCCCN` [N^1-AcSpm], the catalytic constant (kcat) in assay [6] is 15.1 ± 0.4 s⁻¹.
With `C=C=CCNCCCCNCC=C=C` [MDL72527], the “inhibition of analogue degradation in rat liver supernatant” value in [9] is listed as “Complete inhibition”.
Regarding `CC(N)CCNCCCCNCCC(C)N` [(S,S)-Me2Spm, 2,13-diamino-5,10-diazatetradecane], the “Specificity constant ratio SS/RR” value is listed as 28 in assay [2] ((S,S)-Me2Spm vs (R,R)-Me2Spm); 454 in assay [10] ((S,S)-Me2Spm vs (R,R)-Me2Spm); 3.9 in assay [3] (Fms1, (S,S)-Me2Spm vs (R,R)-Me2Spm). In addition, the “Specificity constant ratio SS/Spm” value is reported as 7.1 in assay [2] ((S,S)-Me2Spm vs Spm); 2.1 in assay [10] ((S,S)-Me2Spm vs Spm); 0.07 in assay [3] (Fms1, (S,S)-Me2Spm vs Spm).
